Consider 9 compounds from patent US20220395496A1 (Hoffmann-La Roche Inc., priority 2019, published 2022).

One may read the IC50 as the midpoint of a concentration-inhibition curve. Lower therefore signals greater potency.

In one series the target is T1, human TLR9 (Homo sapiens, UniProt Q9NR96).
T1 sequence (Q9NR96 26-1032): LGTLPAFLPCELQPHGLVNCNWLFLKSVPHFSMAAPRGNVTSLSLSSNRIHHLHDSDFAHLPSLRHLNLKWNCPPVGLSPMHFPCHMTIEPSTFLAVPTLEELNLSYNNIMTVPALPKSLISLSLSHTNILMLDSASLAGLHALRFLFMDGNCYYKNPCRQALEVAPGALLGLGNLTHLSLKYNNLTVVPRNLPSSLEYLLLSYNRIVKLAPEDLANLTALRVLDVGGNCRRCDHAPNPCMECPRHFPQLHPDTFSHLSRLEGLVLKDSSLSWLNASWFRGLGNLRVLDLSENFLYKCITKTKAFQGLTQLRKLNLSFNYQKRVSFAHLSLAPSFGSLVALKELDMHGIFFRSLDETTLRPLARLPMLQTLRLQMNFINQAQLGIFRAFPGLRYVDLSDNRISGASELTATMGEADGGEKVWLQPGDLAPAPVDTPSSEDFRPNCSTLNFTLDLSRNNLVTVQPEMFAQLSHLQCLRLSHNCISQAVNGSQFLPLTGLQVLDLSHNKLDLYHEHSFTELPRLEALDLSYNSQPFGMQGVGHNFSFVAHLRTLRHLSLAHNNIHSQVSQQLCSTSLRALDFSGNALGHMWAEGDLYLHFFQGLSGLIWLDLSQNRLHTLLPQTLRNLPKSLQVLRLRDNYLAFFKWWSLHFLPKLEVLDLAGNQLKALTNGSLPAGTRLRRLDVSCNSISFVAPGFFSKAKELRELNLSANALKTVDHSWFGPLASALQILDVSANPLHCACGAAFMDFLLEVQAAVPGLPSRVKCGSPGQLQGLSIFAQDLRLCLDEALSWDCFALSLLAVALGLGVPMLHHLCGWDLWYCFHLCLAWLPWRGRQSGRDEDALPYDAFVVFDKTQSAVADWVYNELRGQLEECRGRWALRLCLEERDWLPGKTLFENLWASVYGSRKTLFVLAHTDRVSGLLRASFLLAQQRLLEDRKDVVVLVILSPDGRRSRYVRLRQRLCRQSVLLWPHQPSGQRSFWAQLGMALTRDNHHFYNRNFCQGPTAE
Put plainly: HEK293-Blue-hTLR-9 cells assay (SEAP reporter, ODN2006 stimulation). It counts as cell-based. The note with it: HEK293-Blue-hTLR9 cells, ODN2006, 20 hrs. How it is done:
The following tests were carried out in order to determine the activity of the compounds of this invention in HEK293-Blue-hTLR-7/8/9 cells assay.
HEK293-Blue-hTLR-9 Cells Assay:
A stable HEK293-Blue-hTLR-9 cell line was purchased from InvivoGen (Cat. #: hkb-htlr9, San Diego, Calif., USA). These cells were originally designed for studying the stimulation of human TLR9 by monitoring the activation of NF-κB. A SEAP (secreted embryonic alkaline phosphatase) reporter gene was placed under the control of the IFN-β minimal promoter fused to five NF-κB and AP-1-binding sites. The SEAP was induced by activating NF-κB and AP-1 via stimulating HEK-Blue hTLR9 cells with TLR9 ligands. Therefore the reporter expression was declined by TLR9 antagonist under the stimulation of a ligand, such as ODN2006 (Cat. #: tlr1-2006-1, Invivogen, San Diego, Calif., USA), for incubation of 20 hrs. The cell culture supernatant SEAP reporter activity was determined using QUANTI-Blue™ kit (Cat. #: rep-qb1, Invivogen, San Diego, Calif., USA) at a wavelength of 640 nm, a detection medium that turns purple or blue in the presence of alkaline phosphatase.
HEK293-Blue-hTLR9 cells were incubated at a density of 250,000˜450,000 cells/mL in a volume of 170 μL in a 96-well plate in Dulbecco's Modified Eagle's medium (DMEM) containing 4.5 g/L glucose, 50 U/mL penicillin, […], 2 mM L-glutamine, 10% (v/v) heat-inactivated fetal bovine serum with addition of 20 μL test compound in a serial dilution in the presence of final DMSO at 1% and 10 μL of 20 uM ODN2006 in above DMEM, perform incubation under 37° C. in a CO2 incubator for 20 hrs. Then 20 μL of the supernatant from each well was incubated with 180 μL Quanti-blue substrate solution at 37° C. for 2 hrs and the absorbance was read at 620˜655 nm using a spectrophotometer. The signalling pathway that TLR9 activation leads to downstream NF-κB activation has been widely accepted, and therefore similar reporter assay was modified for evaluating TLR9 antagonist.

A short description of series [1]: Human microsome stability assay. The series is classed as in vitro ADME. The note with it: human liver microsomes, 1 μM test compound, 0.5 mg/mL protein, 37° C., pH 7.4. The method, then:
Human Microsome Stability Assay
The human microsomal stability assay is used for early assessment of metabolic stability of a test compound in human liver microsomes. Compounds with high metabolic stability are considered to be desirable as they can provide favorable in vivo PK profiles and thus sufficient exposure in the targeted tissues or organs
Human liver microsomes (Cat. NO.: 452117, Corning, USA; Cat. NO.: H2610, Xenotech, USA) were preincubated with test compound for 10 minutes at 37° C. in 100 mM potassium phosphate buffer, pH 7.4. The reactions were initiated by adding NADPH regenerating system. The final incubation mixtures contained 1 μM test compound, 0.5 mg/mL liver microsomal protein, 1 mM MgCl2, 1 mM NADP, 1 unit/mL isocitric dehydrogenase and 6 mM isocitric acid in 100 mM potassium phosphate buffer, pH 7.4. After incubation times of 0, 3, 6, 9, 15 and 30 minutes at 37° C., 300 μL of cold acetonitrile (including internal standard) was added to 100 μL incubation mixture to terminate the reaction. Following precipitation and centrifugation, the amount of compound remaining in the samples were determined by LC-MS/MS. Controls of no NADPH regenerating system at zero and 30 minutes were also prepared and analyzed.
(Liver microsomes are vesicles of endoplasmic reticulum, rich in cytochrome P450 enzymes.)

With `C[C@H]1C[C@@H](NCc2ccc(N3CCNCC3)cc2)CN(c2ccc(C#N)c3ncccc23)C1` [Example 1, 5-[(3S,5R)-3-methyl-5-[(4-piperazin-1-ylphenyl)methylamino]1-piperidyl]quinoline-8-carbonitrile], it took 55 nM to reach half-maximal inhibition against human TLR9 (IC50). Besides, in series [1], the HLM was determined as 7.3 mL/min/kg.
`C[C@H]1C[C@@H](NCc2ccc(C3CCNCC3)cc2)CN(c2ccc(C#N)c3ncccc23)C1` [Example 2, 5-[(3S,5R)-3-methyl-5-[[4-(4-piperidyl)phenyl]methylamino]-1-piperidyl]quinoline-8-carbonitrile] came in with an IC50 against human TLR9 of 75 nM. Moreover, the HLM in series [1] turned out to be 7.0 mL/min/kg.
For `C[C@H]1C[C@@H](NCc2ccc(N3CCNCC3)nc2)CN(c2ccc(C#N)c3ncccc23)C1` [Example 10], in that order: 68 nM and 7.4 mL/min/kg.
For `C[C@H]1C[C@@H](N2Cc3ccc(N4CCNCC4)cc3C2)CN(c2ccc(C#N)c3ncccc23)C1` [Example 12, 5-[(3S,5R)-3-methyl-5-(5-piperazin-1-ylisoindolin-2-yl)-1-piperidyl]quinoline-8-carbonitrile] the same measures were 73 nM and 6.2 mL/min/kg.
On human TLR9, `C[C@H]1C[C@@H](NCc2cnc(N3CCNCC3)nc2)CN(c2ccc(C#N)c3ncccc23)C1` [Example 17, 5-[(3S,5R)-3-methyl-5-[(2-piperazin-1-ylpyrimidin-5-yl)methylamino]-1-piperidyl]quinoline-8-carbonitrile] displayed an IC50 of 60 nM. Moreover, in series [1], the HLM stood at 6.8 mL/min/kg.
For `C[C@H]1C[C@@H](NCc2ccc(N3CCNCC3)cc2)CN(c2ccc(C#N)n3nccc23)C1` [Example 21, 4-[(3S,5R)-3-methyl-5-[(4-piperazin-1-ylphenyl)methylamino]-1-piperidyl]pyrazolo[1,5-a]pyridine-7-carbonitrile] the same measures were 94 nM and 6.2 mL/min/kg.
`C[C@H]1C[C@@H](N2Cc3cc(N4CCNCC4)cnc3C2)CN(c2ccc(C#N)c3ncccc23)C1` [Example 23, 5-[(3S,5R)-3-methyl-5-(3-piperazin-1-yl-5,7-dihydropyrrolo[3,4-b]pyridin-6-yl)-1-piperidyl]quinoline-8-carbonitrile] yielded an IC50 on human TLR9 of 92 nM. Besides, the HLM in series [1] is 7.3 mL/min/kg.
For `C[C@H]1C[C@@H](NCc2ccccc2)CN(c2ccc(C#N)c3ncccc23)C1` [Example R1, reference compound] the same measures were 1870 nM and 17.3 mL/min/kg.
For `C[C@H]1C[C@@H](N2Cc3ccccc3C2)CN(c2ccc(C#N)c3ncccc23)C1` [Example R2, reference compound] the same measures were 8660 nM and 18.4 mL/min/kg.
